Experimental data published in ChEMBL document CHEMBL5108016, “Design, synthesis and neurite outgrowth activity of novel ganglioside GM1 derivatives by remodeling of the fatty acid moiety” (Eur J Med Chem, 2022).
Calls of active or inactive are those of the source. The calls are words filed in the database; no cut-off is given here.

Legend:
[1] = Cytotoxicity against mouse Neuro2a cells assessed as inhibition of cell growth incubated for 24 hrs by MTT assay; type: toxicity, cell-based, N2a
[2] = tested on: N2a; experiment: Induction of neurite outgrowth in mouse Neuro2a cells assessed as increase in percentage of neurite-bearing cells at 25 uM incubated for 24 hrs; type: functional, cell-based
[3] = tested on: N2a; experiment: Induction of neurite outgrowth in mouse Neuro2a cells assessed as increase in neurite-number per cells at 25 uM incubated for 24 hrs; type: functional, cell-based
[4] = tested on: N2a; experiment: Induction of neurite outgrowth in mouse Neuro2a cells assessed as increase in neurite-length per cells at 25 uM incubated for 24 hrs; type: functional, cell-based
[5] = tested on: N2a; experiment: Induction of neurite outgrowth in mouse Neuro2a cells assessed as increase in GAP43 protein expression at 25 uM incubated for 24 hrs by immunoblotting analysis; type: functional, cell-based

Row | Structure (SMILES) | IC50 at 24 h [1] [µM] | Activity [2] | Activity [3] | Activity [4] | Activity [5]
1 | CCCCCC/C=C\CCCCCCCC(=O)N[C@@H](CO[C@@H]1O[C@H](CO)[C@@H](O[C@@H]2O[C@H](CO)[C@H](O[C@@H]3O[C@H](CO)[C@H](O)[C@H](O[C@@H]4O[C@H](CO)[C@H](O)[C@H](O)[C@H]4O)[C@H]3NC(C)=O)[C@H](O[C@]3(C(=O)O)C[C@H](O)[C@@H](NC(C)=O)[C@@H]([C@@H](O)[C@H](O)CO)O3)[C@H]2O)[C@H](O)[C@H]1O)[C@H](O)/C=C/CCCCCCCCCCCCCCC | > 200 | Active | Active | Active | –
2 | CCCCCC/C=C\CCCCCCCC(=O)N[C@@H](CO[C@@H]1O[C@H](CO)[C@@H](O[C@@H]2O[C@H](CO)[C@H](O[C@@H]3O[C@H](CO)[C@H](O)[C@H](O[C@@H]4O[C@H](CO)[C@H](O)[C@H](O)[C@H]4O)[C@H]3NC(C)=O)[C@H](O[C@]3(C(=O)O)C[C@H](O)[C@@H](NC(C)=O)[C@@H]([C@@H](O)[C@H](O)CO)O3)[C@H]2O)[C@H](O)[C@H]1O)[C@H](O)/C=C/CCCCCCCCCCCCC | – | Active | Active | Active | –
3 | CCCCCCCCCCCCCCC/C=C/[C@@H](O)[C@H](CO[C@@H]1O[C@H](CO)[C@@H](O[C@@H]2O[C@H](CO)[C@H](O[C@@H]3O[C@H](CO)[C@H](O)[C@H](O[C@@H]4O[C@H](CO)[C@H](O)[C@H](O)[C@H]4O)[C@H]3NC(C)=O)[C@H](O[C@]3(C(=O)O)C[C@H](O)[C@@H](NC(C)=O)[C@@H]([C@@H](O)[C@H](O)CO)O3)[C@H]2O)[C@H](O)[C@H]1O)NC(=O)CCCCCCCCCCCCCCCCC | > 200 | – | – | – | –
4 | CCCCCCCC/C=C\CCCCCCCC(=O)N[C@@H](CO[C@@H]1O[C@H](CO)[C@@H](O[C@@H]2O[C@H](CO)[C@H](O[C@@H]3O[C@H](CO)[C@H](O)[C@H](O[C@@H]4O[C@H](CO)[C@H](O)[C@H](O)[C@H]4O)[C@H]3NC(C)=O)[C@H](O[C@]3(C(=O)O)C[C@H](O)[C@@H](NC(C)=O)[C@@H]([C@@H](O)[C@H](O)CO)O3)[C@H]2O)[C@H](O)[C@H]1O)[C@H](O)/C=C/CCCCCCCCCCCCC | > 200 | Active | Active | Active | Active
